Data from patent publication US20230203142A1, “TREATMENT OF METABOLIC DISORDERS THROUGH THE TARGETING OF A NOVEL CIRCULATING HORMONE COMPLEX” (The President and Fellows of Harvard College, priority 2020, published 2023).
One block for each compound: values may come before it.

How the values were obtained:
INS1 cells [1] = assay: Glucose-stimulated insulin secretion (GSIS), INS1 cells; format: cell-based, rat
Protocol: This finding was recapitulated in both primary human islets from multiple non-diabetic donors (FIG. 6B), as well as INS1 cells (FIG. 6C). Human islets from review board approved healthy donors were isolated using the Edmonton protocol and provided by the IsletCore and Clinical Islet Laboratory (University of Alberta, Canada). Donors with a BMI<25 and HbA1c<6.0% were used for experiments. Islets were hand-picked three times and cultured at 37° C. in RPMI media with 10% FBS and 1% Penicillin/Streptomycin overnight before use. For INS1 cells, cells were plated at 8000 cells/well in 96-well plates and incubated overnight prior to experimentation. Insulin secretion assay was performed as above using 200 μl/well for each treatment. Cells were lysed using 80 μl ultrapure water and flash freezing. For siRNA experiments, INS1 cells were allowed to reach confluency before transfection of siRNA (Horizon Discovery; L-090381-02-0005) using Lipofectamine 3000 (Thermo Fischer; L3000015) according to manufacturer protocol for 48 hours prior to assays.
As additional controls, it was explored whether lipid binding was required for FABP4 action. […] FABP4 inhibitor studies were performed using BMS-309403 (10 nM; Sigma #BM0015).
To further elucidate the role of purinergic receptors in this signaling process, a potent and selective P2Y1 inhibitor, MRS2179 (Baurand et al., 2001) was utilized. Cells were pre-treated for P2Y1 inhibitor (100 nM; MRS2179, Tocris #0900) during the pre-incubation period.
To confirm activity of this inhibitor, INS1 cells were treated with increasing concentrations of ADP in the presence or absence of MRS2179. […] This supports the hypothesis that the ADP produced by the NDPK-ADK complex signals through the P2Y1 receptor, treatment of INS1 cells with MRS2179 abolished the increase in GSIS associated with addition of NDPK-ADK, with no effect in the presence of NDPK-ADK/FABP4, consistent with the receptor being inhibited by ATP under these conditions (FIG. 6L). […] Treatment of primary mouse islets with H118N NDPK and WT ADK had no effect on GSIS, confirming the requirement of NDPK kinase activity for the biology (FIG. 6N). Additionally, it was modeled that the inhibitory effect of the NDPK-ADK/FABP4 complex on GSIS is dependent on the production of ATP by ADK, as activated by the presence of FABP4. To test this, an ADK inhibitor was utilized. Cells were pre-treated with ADK inhibitor (2 nM; Santa Cruz #sc-202900) during the pre-incubation period.

INS1 cells [2] = assay: Cytosolic calcium flux, Fura-2 AM imaging; conditions: 20 mM glucose
Protocol: Cells were pre-treated with P2Y1 activator (0.5 nM; MRS2365 Tocris #2157) during the pre-incubation period. Cells were stimulated with ATP (5 μM; Promega #V915A) or ADP (2.5 μM; Promega #V916A) acutely with the addition of LG and HG KRB during the serial stimulation. Cells were treated with 100 ng/ml recombinant human FABP4 (produced in-house), 200 ng/ml recombinant human ADK (Novus Biologicals, product number NBP1-44382 or R&D Systems, product number 8024-AK-025), or 100 ng/ml recombinant human NDPK-A (Acro Biosystems, product number NM1-H5147) where indicated, for the pre-incubation period, as well as during the glucose stimulation.
Briefly, INS1 cells were plated in imaging disks at 5000 cells/dish and cultured in standard media overnight. Cells were washed with PBS, and incubated in imaging buffer without glucose, with or without calcium containing Fura-2 AM (2 mM; ThermoFisher F1201) for 30 minutes at 37° C. Cells were washed twice with fresh PBS, and placed in lml imaging buffer. Calcium flux was evaluated with the addition of 20 mM glucose, 30 mM KCl, or 1 μM Thapsigargin. Extracellular calcium was added at 1.5 mM. Calcium flux measurements were performed using an epifluorescence system coupled to a Ti-S/L100 inverted microscope L100 with fluorescent light source (X-Cite 120LED System) equipped with Lambda DG-4 Plus for UV ratiometric probes. Excitations at 340 nm and 380 nm were used and an emission of 510 nm. Analysis was performed using ImageJ software. Calcium flux was measured from 50 cells per coverslip.

CA33 (a-Ab) = assay: MST epitope mapping: nested NDPK-A peptides with a-Ab; format: binding
Protocol: To define the binding site of a-Ab on NDPK, a nested series of peptides were generated covering human NDPK-A and interaction of each peptide with a-Ab was evaluated by Microscale Thermophoresis (MST) (FIG. 4D). MST is a technology for the interaction analysis of biomolecules. MST is the directed movement of particles in a microscopic temperature gradient. Any change of the hydration shell of biomolecules due to changes in their structure/conformation results in a relative change of the movement along the temperature gradient and is used to determine binding affinities. MST allows measurement of interactions directly in solution without the need of immobilization to a surface (immobilization-free technology).

recombinant NDPK = target: T1, recombinant NDPK (Homo sapiens, UniProt P15531, H118N); assay: Recombinant kinase activity assay, NDPK (ADP-Glo/Kinase-Glo); format: biochemical; conditions: kinase activity of NDPK mutant
T1 construct: purchased Acro Biosystems NM1-H5147
T1 sequence (P15531 whole entry H118N): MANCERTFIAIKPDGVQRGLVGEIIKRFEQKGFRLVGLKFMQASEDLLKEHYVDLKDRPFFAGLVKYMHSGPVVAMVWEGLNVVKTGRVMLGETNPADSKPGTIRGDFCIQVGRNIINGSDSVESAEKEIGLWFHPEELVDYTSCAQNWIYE
Protocol: (§1) An on-bead kinase assay was developed to measure the activity of endogenous NDPK and ADK pulled down from serum using a-Ab or c-Ab conjugated beads. Both NDPK and ADK are bi-directional kinases that will produce ATP or ADP depending on the substrates provided (FIGS. 4B-C). Kinase activity assays were performed in 384-well plates in reaction buffer (PBS with 0.1% BSA, 0.01% F-127, 5 mM MgCl2). Experiments with recombinant proteins were performed at final concentrations of 40 μg/ml for ADK and FABP4, and 20 ug/ml for NDPK, and a reaction volume of 10 μl. Antibodies were used at a final concentration of 80 ug/ml. […] Proteins and substrates were incubated for 1 hr at room temperature, and ADP and ATP production were monitored using ADP-Glo and Kinase-Glo kits, respectively, according the manufacturer instructions (V6930 and V6711 Promega, USA). Luminescence was quantified using a SpectraMax Paradigm plate reader 30 min after the addition of substrate. Consistent with the MS results, ADK activity, as measured by generation of ATP, was specifically observed in samples pulled down with a-Ab but not c-Ab (FIG. 5A). […] To test this possibility, the ATP and ADP generating activity of recombinant ADK was assessed in the presence of the proposed complex components.

primary mouse islets = assay: Glucose-stimulated insulin secretion (GSIS), mouse islets; format: cell-based; conditions: primary / WT mouse islets
Protocol: Primary islet isolation from mice was performed as previously described (Batchuluun et al., 2018; Prentice et al., 2014) and GSIS was assessed following acute treatment with NDPK-ADK in the presence or absence of FABP4. Insulin secretion assays were performed as previously described (Prentice et al., 2014). For primary islets, 20 islets were hand-picked into 1.5 ml tubes, washed twice with Krebs Ringer Buffer (KRB) without glucose, and pre-incubated in 500 μl low glucose (LG; 2.8 mM) KRB for 1 hour at 37° C. KRB was then removed and 250 μl of fresh LG KRB added. Islets were incubated for 20 minutes at 37° C. Supernatant was collected and 250 μl high glucose (HG; 16.7 mM) KRB added. Islets were incubated for 20 minutes at 37° C. In conditions where KCl was used, HG KRB was collected, and 250 μl KC1 (16.7 mM glucose, 30 mM KCl) KRB added. Islets were incubated for 20 minutes at 37° C., and supernatant collected. Following the stimulation protocol, cells were lysed in 100 μl acid ethanol (70% ethanol, 1% HCl in water) and stored at 4° C. overnight. Samples were evaporated using a SpeedVac until dried, and resuspended in 60 μl ultrapure water. DNA was quantified by Nanodrop (ThermoFisher, USA). Insulin from supernatant was quantified using insulin HTRF (Insulin Ultrasensitive Assay kit 62IN2PEH; Cisbio, USA).

recombinant ADK = target: T2, recombinant ADK (Homo sapiens, UniProt P55263); assay: Recombinant kinase activity assay, ADK (Kinase-Glo); format: biochemical; conditions: recombinant ADK plus the added component
T2 construct: purchased Novus Biologicals or R&D Systems NBP1-44382 or 8024-AK-025
T2 sequence (P55263 whole entry): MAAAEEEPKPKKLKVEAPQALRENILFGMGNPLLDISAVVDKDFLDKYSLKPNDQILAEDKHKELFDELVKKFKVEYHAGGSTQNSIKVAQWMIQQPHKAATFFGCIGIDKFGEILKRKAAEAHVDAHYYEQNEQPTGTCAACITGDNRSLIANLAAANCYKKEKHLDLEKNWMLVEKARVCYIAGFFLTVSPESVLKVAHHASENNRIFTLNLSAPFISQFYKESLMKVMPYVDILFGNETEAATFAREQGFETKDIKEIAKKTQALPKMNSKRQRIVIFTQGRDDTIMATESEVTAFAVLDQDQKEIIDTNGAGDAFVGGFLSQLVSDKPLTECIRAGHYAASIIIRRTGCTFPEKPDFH
Protocol: as §1

Compound: Nc1ncnc2c1ncn2[C@@H]1O[C@H](COP(=O)(O)OP(=O)(O)O)[C@@H](O)[C@H]1O [ADP]
GSIS in the presence of the NDPK-ADK/FABP4 complex (INS1 cells [1]): potentiated
insulin secretion / GSIS with exogenous nucleotide (INS1 cells [1]): potentiated

Compound: Nc1ncnc2c1ncn2[C@@H]1O[C@H](COP(=O)(O)OP(=O)(O)OP(=O)(O)O)[C@@H](O)[C@H]1O [ATP]
increase in GSIS with addition of NDPK-ADK (INS1 cells [1]): blunted
insulin secretion / GSIS with exogenous nucleotide (INS1 cells [1]): suppressed

Compound: Nc1ncnc2c1ncn2[C@@H]1O[C@H](COP(=O)(O)OP(=O)(O)OP(O)(O)=S)[C@@H](O)[C@H]1O [ATPgS]
increase in GSIS with addition of NDPK-ADK (INS1 cells [1]): more pronounced

Compound: CCc1c(-c2ccccc2)c(-c2ccccc2)nn1-c1ccccc1-c1cccc(OCC(=O)O)c1 [BMS-309403]
effect on suppressing NDPK-ADK-potentiated GSIS as WT recombinant FABP4 (INS1 cells [1]; FABP4 mutant or FABP4 treated with inhibitor): same effect

Compound: CNc1ncnc2c1ncn2[C@H]1C[C@H](OP(=O)(O)O)[C@@H](COP(=O)(O)O)O1 [MRS2179]
GSIS in the presence of the NDPK-ADK/FABP4 complex (INS1 cells [1]): no effect
increase in GSIS with addition of NDPK-ADK (INS1 cells [1]): abolished
ADP-stimulated increase in GSIS (INS1 cells [1]; increasing concentrations of ADP): completely inhibited

Compound: CSc1nc(N)c2ncn([C@H]3[C@H](O)[C@H](O)[C@]4(COP(=O)(O)OP(=O)(O)O)C[C@H]34)c2n1 [MRS2365, reference compound]
extracellular calcium influx in response to glucose (INS1 cells [2]): rescued

binding with a-Ab (in words) (CA33 (a-Ab)): High affinity binding
Compound: GPVVAMVWEGLNVVK [Peptide 8]

capacity to generate ADP (recombinant NDPK): no capacity
Compound: H118N NDPK: kinase-dead H118N NDPK mutant
GSIS (primary mouse islets): no effect

binding with a-Ab (in words) (CA33 (a-Ab)): Low affinity binding
Compound: IKPDGVQRGLVGEII [Peptide 2]

ADK activity to generate ATP (recombinant ADK): no effect
Compound: NDPK: recombinant human NDPK-A (Acro Biosystems)

binding with a-Ab (in words) (CA33 (a-Ab)): Low affinity binding
Compound: VGEIIKRFEQKGFRL [Peptide 3]
